Here are results for 4 compounds from ChEMBL document CHEMBL1123353, “3,17 beta-Dihydroxy-20,21-epoxy-19-norpregna-1,3,5(10)-trienes: synthesis, rearrangement, cytotoxicity, and estrogen-receptor binding” (J Med Chem, 1986).

In one experiment the test system is HeLa. The experiment is described as follows: Compound was evaluated for toxicity against HeLa S3 cells. Format: functional, cell-based. Conditions: Homo sapiens.
The subject of the next experiment is GH3. The experiment is described as follows: Compound was evaluated for toxicity against GH3 cells. Format: functional, cell-based. Conditions: Rattus norvegicus.

For the compound `C[C@]12CC[C@@H]3c4ccc(O)cc4CC[C@H]3[C@@H]1CC[C@@]2(O)[C@H]1CO1`, the IC50 is 6.5 µM with HeLa and 5.5 µM with GH3.

Consider `C[C@]12CC[C@@H]3c4ccc(O)cc4CC[C@H]3[C@@H]1CC[C@@]2(O)[C@@H]1CO1`, for which the results for the IC50 with HeLa and in the experiment on GH3 were 18.6 µM and 17.7 µM, respectively.

`C[C@]12CC[C@@H]3c4ccc(OC(=O)N(CCCl)CCCl)cc4CC[C@H]3[C@@H]1CC[C@@H]2O` [ESTRAMUSTINE]: the IC50 with HeLa came to 3.4 µM.

On to `C=C[C@@]12COC(=O)C(=C)[C@@H]1[C@H]1OC(=O)C(=C)[C@@H]1[C@@H](O)C2` [VERNOLEPIN], for which the IC50 was 3.5 µM with HeLa and 5.2 µM in the experiment on GH3.
